Key:
[1] = Hall et al. 1995; cited from earlier work
[2] = test system: neural cell adhesion to laminin; conditions: Hall et al. 1995; cited from earlier work
laminin = target: T1, laminin (Mus musculus, UniProt P19137); assay: Competition of L2 glycolipid binding to immobilized laminin by CD4 peptide; conditions: L2 glycolipids 3 μg/ml, varying CD-4 peptide
T1 construct: purchased Gibco/BRL
Protocol: The CD-4 peptide was conjugated to Ovalbumin (by similar methods as for BSA conjugation described in Materials and Methods) to generate CD4-OV, and binding experiments were performed to assess binding of conjugated peptide to laminin and L2 glycolipid. In particular, it was necessary to confirm that CD4 peptide and laminin compete directly in binding to L2/HNK-1 glycolipids. In this set of experiments, microtiter plates were coated with serial dilutions of either CD4-OV or laminin (each 10 μg/ml 1:1 in EtOH, allowed to dry overnight). The coated plates were then incubated in the following combinations: (a) CD4-OV coated plates with L2 glycolipid (3 μg/ml, 1 hr, RT); (b) laminin coated plates with L2 glycolipid (3 μg/ml. 1 hr, RT); and (c) laminin coated plates with CD-4-OV (1 μg/ml) and L2 glycolipids (3 μg/ml) for 1 hr at RT. Similar to the previous set of experiments L2-412 antibody was added (1:1000, 3 hr, RT), followed by HRP-conjugated-goat anti-rat antibody (2 hrs, RT) and detection by HRP-linked secondary antibody. The results (not shown) confirmed that CD4 peptide and laminin compete directly in binding to L2/HNK-1 glycolipids.
To further assess whether the CD-4 peptide could inhibit L2 glycolipid binding to laminin, a fixed amount of L2 glycolipid was incubated with immobilized laminin, in the presence of varying concentrations of CD-4 peptide. […]

[3] = L2 glycolipid binding to immobilized CD4 peptide; conditions: L2 glycolipid 3 μg/ml, detected with L2-412
Protocol: The ability of isolated L2/HNK-1 glycolipid to bind to immobilized CD-4 peptide was tested. CD-4 peptide was immobilized in water at different concentrations and dried onto microtiter plates overnight. The microtiter plates were blocked with 1% BSA in PBS, incubated with 3 ug/ml L2 glycolipid for 1.5 hours at room temperature, and washed with PBS. Bound L2 glycolipid was detected with L2-412 antibody followed by HRP-linked secondary antibody.
It was determined whether L2 glycolipid could bind substrate coated CD-4 peptide. CD4 peptide was coated onto microtiter plates by coating with serial dilutions of CD4 peptide (1 mg/ml 1:1 in EtOH) and allowed to dry overnight. The wells were incubated with L2-glycolipid (3 μg/ml) for 1 hour at RT, L2-412 antibody (1: 1000) then added and further incubated for 3 hours at RT. Goat anti-rat antibody was then added, incubated 2 hours at RT and detected by HRP-linked secondary antibody.
The CD-4 peptide was conjugated to Ovalbumin (by similar methods as for BSA conjugation described in Materials and Methods) to generate CD4-OV, and binding experiments were performed to assess binding of conjugated peptide to laminin and L2 glycolipid. In particular, it was necessary to confirm that CD4 peptide and laminin compete directly in binding to L2/HNK-1 glycolipids. […]

Sequence | binding to the L2/HNK-1 carbohydrate [1] | inhibition of HNK-1-mediated neural cell adhesion to laminin [2] | competition of L2 glycolipid binding to immobilized laminin (laminin) | L2 glycolipid binding to immobilized CD4 peptide (words) [3] | L2 glycolipid binding to immobilized CD4 peptide (words) ([3]; listed as CD-4 peptide)
KGVSSRSYVGCIKNLEISRST | bound to the L2/HNK-1 carbohydrate in a concentration-dependent manner | inhibited HNK-1-mediated neural cell adhesion to laminin | – | – | –
RASSSKSWITFDLKNKEVSVK [CD4 peptide] | – | – | competes with L2 glycolipid binding to immobilized laminin in a concentration-dependent manner | binds to CD4 peptide in a concentration-dependent manner | binds L2 glycolipid in a concentration dependent manner

Reference: US20030100508A1, “Carbohydrate epitope mimic compounds and uses thereof” (priority 1999, published 2003)
